Reference: patent publication US9695155B2, “Herbicidal substituted pyrimidinyloxy benzene compounds” (E. I. DU PONT DE NEMOURS AND COMPANY, priority 2013, dated 2017)

Tests used:
barnyardgrass = experiment: Test A postemergence; assay type: in vivo, Echinochloa crus-galli
Summary of the method: (§1)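 Compounds in non-phytotoxic solvent with surfactant applied as soil spray preemergence, or postemergence to plants 2-10 cm at one- to two-leaf stage, in loam/sand. After approximately 10 days in greenhouse, injury rated visually versus untreated controls, 0 (no effect) to 100 (complete control).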

wheat = experiment: Test A postemergence; assay type: in vivo, Triticum aestivum
Summary of the method: as §1

Heteranthera limosa = experiment: Test B flooded paddy test; assay type: in vivo; details: Flood, 250 g ai/ha; 0 to 100 scale where 0 is no effect and 100 is complete control
Summary of the method: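 Plants at 2-leaf stage; pots flooded to 3 cm above soil and compound applied directly into paddy water, depth held throughout. After 13 to 15 days in greenhouse, visual rating versus controls on 0 (no effect) to 100 (complete control) scale.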

blackgrass = experiment: Test C preemergence; assay type: in vivo, Alopecurus myosuroides; details: for Blackgrass plant response rating: preemergence; for Plant response rating, Blackgrass: Preemergence, 31 g ai/ha, scale 0 to 100, 0 no effect, 100 complete control
Summary of the method: (§2)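 Seeds were sown in loam–sand blend and sprayed preemergence, while plants at 1- to 4-leaf stage (2–18 cm) in peat-based medium received postemergence sprays; test chemicals were formulated in a non-phytotoxic solvent with surfactant. After 13–15 days in a greenhouse, injury was rated visually against controls, 0 (no effect) to 100 (complete control).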

Italian ryegrass = experiment: Test C preemergence; assay type: in vivo, Lolium multiflorum; details: preemergence
Summary of the method: as §2

wheat, winter = experiment: Test C preemergence; assay type: in vivo, Triticum aestivum; details: preemergence
Summary of the method: as §2

galium = experiment: Test C preemergence; assay type: in vivo, Galium aparine; details: for Galium plant response rating: preemergence; for Plant response rating, Galium: Preemergence, 31 g ai/ha, scale 0 to 100, 0 no effect, 100 complete control
Summary of the method: as §2

morningglory [1] = experiment: Test C preemergence; assay type: in vivo, Ipomoea coccinea; details: preemergence
Summary of the method: as §2

waterhemp = experiment: Test C preemergence; assay type: in vivo, Amaranthus rudis; details: preemergence
Summary of the method: as §2

morningglory [2] = experiment: Test C postemergence; assay type: in vivo, Ipomoea coccinea; details: for Plant response rating (0 to 100), Morningglory: 16 g ai/ha, 0 is no effect, 100 is complete control; for Morningglory plant response rating: 31 g ai/ha, 13 to 15 days; for Morningglory plant response rating / Plant response rating, Morningglory: scale 0 to 100 (0 no effect, 100 complete control)
Summary of the method: as §2

[3] = 125 g ai/ha, 0 to 100 scale where 0 is no effect and 100 is complete control
[4] = 16 g ai/ha, scale 0 to 100 (0 no effect, 100 complete control)
[5] = 62 g ai/ha, scale 0 (no effect) to 100 (complete control)
[6] = 125 g ai/ha, scale 0 (no effect) to 100 (complete control)
[7] = 125 g ai/ha, postemergence, visual rating
[8] = 1000 g ai/ha, 0 to 100 scale, 0 no effect, 100 complete control

| Structure (SMILES) | Plant response rating, Ducksalad (Heteranthera limosa) | Blackgrass plant response rating (blackgrass; [4]) | Blackgrass plant response rating (blackgrass; [5]) | Blackgrass plant response rating (blackgrass; [6]) | Plant response rating, Blackgrass (blackgrass) | Ryegrass, Italian plant response rating (Italian ryegrass; [4]) | Ryegrass, Italian plant response rating (Italian ryegrass; [5]) | Ryegrass, Italian plant response rating (Italian ryegrass; [6]) | Wheat plant response rating (wheat, winter; [4]) | Wheat plant response rating (wheat, winter; [5]) | Wheat plant response rating (wheat, winter; [6]) | Galium plant response rating (galium; [4]) | Galium plant response rating (galium; [5]) | Galium plant response rating (galium; [6]) | Plant response rating, Galium (galium) | Morningglory plant response rating (morningglory [1]; [4]) | Morningglory plant response rating (morningglory [1]; [5]) | Morningglory plant response rating (morningglory [1]; [6]) | Waterhemp plant response rating (waterhemp; [4]) | Waterhemp plant response rating (waterhemp; [5]) | further results |
| --- | --- | --- | --- | --- | --- | --- | --- | --- | --- | --- | --- | --- | --- | --- | --- | --- | --- | --- | --- | --- | --- |
| CCCOc1cnn(-c2c(C#N)cccc2Oc2ncc(Cl)cn2)c1 [Compound 150] | 90 | 0 | 50 | 50 | 10 | 0 | 30 | 50 | 0 | 5 | 5 | 0 | 90 | 100 | 80 | 0 | 45 | 75 | 20 | 98 | Barnyardgrass plant response rating (barnyardgrass; [3]): 100; Wheat plant response rating (wheat; [3]): 30; Plant response rating, Wheat (wheat; 500 g ai/ha, 0 to 100 scale where 0 is no effect and 100 is complete control): 90; Waterhemp plant response rating (waterhemp; [6]): 98; Plant response rating (0 to 100), Morningglory (morningglory [2]; postemergence): 40; Morningglory plant response rating (morningglory [2]; postemergence, visual rating): 60; Plant response rating, Morningglory (morningglory [2]; [7]): 80; Plant response rating, Morningglory (morningglory [2]; Postemergence, 62 g ai/ha): 65 |
| FCc1cn(-c2c(F)cccc2Oc2ncc(Cl)cn2)nn1 [Compound 154] | 80 | 0 | 20 | 90 | 10 | 0 | 20 | 25 | 0 | 0 | 5 | 80 | 95 | 95 | 95 | 10 | 50 | 85 | 100 | 100 | Plant response rating, Barnyardgrass (barnyardgrass; [8]): 100; Plant response rating, Wheat (wheat; [8]): 80; Waterhemp plant response rating (waterhemp; [6]): 100; Plant response rating (0 to 100), Morningglory (morningglory [2]; postemergence): 55; Morningglory plant response rating (morningglory [2]; postemergence, visual rating): 65; Plant response rating, Morningglory (morningglory [2]; [7]): 80; Plant response rating, Morningglory (morningglory [2]; Postemergence, 62 g ai/ha): 65 |
